The record followed here is ChEMBL document CHEMBL4033684, “Development of nonsteroidal glucocorticoid receptor modulators based on N-benzyl-N-(4-phenoxyphenyl)benzenesulfonamide scaffold” (Bioorg Med Chem, 2017).

Molecules are shown by their SMILES. Calls of active or inactive are those of the source. The rule behind the calls is not given here.

What all share (assay type): cell-based
One data set addresses T1, Progesterone receptor (Homo sapiens, UniProt P06401).
T1 sequence (P06401 whole entry): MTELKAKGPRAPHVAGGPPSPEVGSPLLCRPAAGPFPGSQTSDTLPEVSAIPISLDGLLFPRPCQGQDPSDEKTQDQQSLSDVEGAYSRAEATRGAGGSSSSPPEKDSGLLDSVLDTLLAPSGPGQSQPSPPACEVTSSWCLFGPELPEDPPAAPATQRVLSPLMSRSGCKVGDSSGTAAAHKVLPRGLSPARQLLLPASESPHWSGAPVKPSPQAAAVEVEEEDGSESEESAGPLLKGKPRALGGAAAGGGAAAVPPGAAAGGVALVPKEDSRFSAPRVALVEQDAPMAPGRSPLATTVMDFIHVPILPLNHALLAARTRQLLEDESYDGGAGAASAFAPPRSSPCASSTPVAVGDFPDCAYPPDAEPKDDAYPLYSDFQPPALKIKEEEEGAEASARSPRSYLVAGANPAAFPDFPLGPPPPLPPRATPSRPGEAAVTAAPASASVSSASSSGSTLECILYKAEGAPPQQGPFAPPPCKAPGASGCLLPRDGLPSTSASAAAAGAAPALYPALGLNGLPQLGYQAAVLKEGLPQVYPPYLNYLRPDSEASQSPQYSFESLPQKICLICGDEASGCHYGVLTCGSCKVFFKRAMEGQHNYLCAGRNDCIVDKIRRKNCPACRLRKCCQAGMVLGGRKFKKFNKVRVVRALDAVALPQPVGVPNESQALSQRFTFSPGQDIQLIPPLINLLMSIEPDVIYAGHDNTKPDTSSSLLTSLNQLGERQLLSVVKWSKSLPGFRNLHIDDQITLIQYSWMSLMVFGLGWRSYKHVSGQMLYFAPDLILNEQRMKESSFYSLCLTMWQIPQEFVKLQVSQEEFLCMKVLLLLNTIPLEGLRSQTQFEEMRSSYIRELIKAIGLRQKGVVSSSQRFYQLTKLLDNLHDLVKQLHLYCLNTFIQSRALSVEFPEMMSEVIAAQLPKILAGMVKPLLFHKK
Briefly: Antagonist activity at PR in human T47D cells assessed as inhibition of progesterone-induced response after 24 hrs by alkaline phosphatase assay.

Data set [1] addresses Estrogen receptor beta (Homo sapiens) (UniProt Q92731). As to the kind of experiment: Antagonist activity at human GAL4-fused ERbeta LBD expressed in HEK293 cells at 30 uM after 24 hrs by luciferase reporter gene assay. (In general: A reporter such as luciferase makes a cellular process visible.)
The target of data set [2] is T2, Estrogen receptor (Homo sapiens) (UniProt P03372).
T2 sequence (whole entry): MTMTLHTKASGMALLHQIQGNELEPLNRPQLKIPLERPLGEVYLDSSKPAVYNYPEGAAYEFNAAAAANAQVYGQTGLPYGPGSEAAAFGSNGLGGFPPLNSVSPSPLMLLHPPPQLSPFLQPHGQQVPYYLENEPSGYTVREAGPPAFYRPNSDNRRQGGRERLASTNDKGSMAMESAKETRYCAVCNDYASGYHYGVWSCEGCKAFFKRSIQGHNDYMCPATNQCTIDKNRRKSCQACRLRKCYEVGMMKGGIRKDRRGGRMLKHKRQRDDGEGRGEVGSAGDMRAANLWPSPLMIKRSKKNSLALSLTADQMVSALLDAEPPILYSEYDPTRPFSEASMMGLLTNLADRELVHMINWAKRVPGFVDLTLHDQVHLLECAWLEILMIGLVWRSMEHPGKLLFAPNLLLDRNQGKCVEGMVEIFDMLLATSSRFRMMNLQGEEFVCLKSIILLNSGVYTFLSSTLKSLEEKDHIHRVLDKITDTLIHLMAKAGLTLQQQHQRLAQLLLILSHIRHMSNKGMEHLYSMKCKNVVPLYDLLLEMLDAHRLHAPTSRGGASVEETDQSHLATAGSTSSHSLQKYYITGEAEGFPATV
As to the kind of experiment: Antagonist activity at human GAL4-fused ERalpha LBD expressed in HEK293 cells at 30 uM after 24 hrs by luciferase reporter gene assay.

In data set [3] the target is T3, Glucocorticoid receptor (Homo sapiens) (UniProt P04150).
T3 sequence (whole entry): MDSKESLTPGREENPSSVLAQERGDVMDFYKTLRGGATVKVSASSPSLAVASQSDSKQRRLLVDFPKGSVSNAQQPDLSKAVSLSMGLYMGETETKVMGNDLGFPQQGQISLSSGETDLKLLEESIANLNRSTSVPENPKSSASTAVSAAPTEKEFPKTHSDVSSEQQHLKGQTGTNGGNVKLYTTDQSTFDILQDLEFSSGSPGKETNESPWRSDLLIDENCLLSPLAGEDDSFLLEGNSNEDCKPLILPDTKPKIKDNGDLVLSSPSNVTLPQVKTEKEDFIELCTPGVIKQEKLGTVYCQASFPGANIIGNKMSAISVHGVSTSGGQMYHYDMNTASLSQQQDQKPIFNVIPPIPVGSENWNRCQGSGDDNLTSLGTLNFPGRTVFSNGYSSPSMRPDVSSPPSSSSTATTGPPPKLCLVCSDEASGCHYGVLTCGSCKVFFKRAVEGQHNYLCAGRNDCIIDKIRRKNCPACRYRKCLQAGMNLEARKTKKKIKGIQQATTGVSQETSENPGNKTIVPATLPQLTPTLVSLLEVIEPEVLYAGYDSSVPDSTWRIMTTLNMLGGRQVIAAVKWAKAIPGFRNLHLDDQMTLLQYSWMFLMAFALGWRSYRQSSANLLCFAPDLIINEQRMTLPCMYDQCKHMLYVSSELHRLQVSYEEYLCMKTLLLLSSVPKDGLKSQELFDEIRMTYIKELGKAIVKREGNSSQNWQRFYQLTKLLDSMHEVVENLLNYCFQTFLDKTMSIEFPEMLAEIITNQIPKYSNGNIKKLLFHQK
Briefly: Transrepression of human GRalpha expressed in HEK293 cells co-expressing pGL4.32 assessed as inhibition of TNFalpha-stimulated NF-kB activity at 30 uM preincubated for 4 hrs followed by TNFalpha addition measured after 3 hrs by luciferase reporter gene assay relative to control.

Data set [4] has as its target T4, Glucocorticoid receptor (Homo sapiens, UniProt P04150).
T4 sequence (P04150 whole entry): T3 sequence (whole entry)
As to the kind of experiment: Transactivation of human GRalpha expressed in HEK293 cells after 24 hrs by luciferase reporter gene assay. Conditions: hek293, 24 h.

The target in data set [5] is T5, Androgen receptor (Homo sapiens) (UniProt P10275).
T5 sequence (whole entry): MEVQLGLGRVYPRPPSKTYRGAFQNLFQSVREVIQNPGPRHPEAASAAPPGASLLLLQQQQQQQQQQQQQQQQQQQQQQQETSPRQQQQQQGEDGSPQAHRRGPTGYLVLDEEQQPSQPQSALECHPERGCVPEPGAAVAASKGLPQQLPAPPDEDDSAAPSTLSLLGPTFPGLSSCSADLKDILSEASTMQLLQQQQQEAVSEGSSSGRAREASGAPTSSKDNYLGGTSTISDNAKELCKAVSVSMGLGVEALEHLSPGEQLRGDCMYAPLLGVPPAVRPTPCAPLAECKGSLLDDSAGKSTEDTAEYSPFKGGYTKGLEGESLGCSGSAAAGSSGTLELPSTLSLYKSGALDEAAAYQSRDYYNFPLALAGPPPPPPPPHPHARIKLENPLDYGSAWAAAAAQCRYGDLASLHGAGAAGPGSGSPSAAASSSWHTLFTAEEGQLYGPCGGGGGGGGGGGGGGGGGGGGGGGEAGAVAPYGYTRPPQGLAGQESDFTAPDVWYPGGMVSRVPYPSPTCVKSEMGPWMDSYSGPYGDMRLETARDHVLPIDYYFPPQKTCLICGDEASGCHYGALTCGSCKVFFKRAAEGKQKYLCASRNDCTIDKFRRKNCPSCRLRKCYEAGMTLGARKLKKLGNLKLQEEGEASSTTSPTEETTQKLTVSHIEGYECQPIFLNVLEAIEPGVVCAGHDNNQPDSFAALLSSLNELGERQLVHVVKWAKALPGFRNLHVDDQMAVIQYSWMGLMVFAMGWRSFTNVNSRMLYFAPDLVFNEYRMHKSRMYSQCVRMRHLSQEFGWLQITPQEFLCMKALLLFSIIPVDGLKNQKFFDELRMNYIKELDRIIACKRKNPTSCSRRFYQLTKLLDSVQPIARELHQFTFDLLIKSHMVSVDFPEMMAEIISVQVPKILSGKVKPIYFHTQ
Briefly: Antagonist activity at human AR expressed in HEK293 cells at 30 uM after 24 hrs by luciferase reporter gene assay.

In data set [6] the target is T4, Glucocorticoid receptor. As to the kind of experiment: Antagonist activity at human GRalpha expressed in HEK293 cells assessed as inhibition of dexamethasone-induced response after 24 hrs by luciferase reporter gene assay.

Estrogen receptor beta (Homo sapiens), sequence (Q92731 whole entry, the tested form may be a part): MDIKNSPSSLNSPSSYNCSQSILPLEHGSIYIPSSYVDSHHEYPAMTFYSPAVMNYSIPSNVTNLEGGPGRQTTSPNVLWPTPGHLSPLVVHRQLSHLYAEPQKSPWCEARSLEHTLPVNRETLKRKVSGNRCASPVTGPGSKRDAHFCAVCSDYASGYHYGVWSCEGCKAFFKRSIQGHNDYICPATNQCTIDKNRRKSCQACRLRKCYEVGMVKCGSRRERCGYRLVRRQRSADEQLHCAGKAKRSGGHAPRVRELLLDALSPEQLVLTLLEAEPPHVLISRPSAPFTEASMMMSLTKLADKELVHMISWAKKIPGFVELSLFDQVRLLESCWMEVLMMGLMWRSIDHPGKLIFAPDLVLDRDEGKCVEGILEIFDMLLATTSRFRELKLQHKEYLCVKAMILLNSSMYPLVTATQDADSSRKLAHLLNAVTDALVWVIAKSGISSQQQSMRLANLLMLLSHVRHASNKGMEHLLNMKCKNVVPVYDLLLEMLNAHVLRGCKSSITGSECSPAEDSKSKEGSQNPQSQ

Take `N#Cc1ccc(S(=O)(=O)N(Cc2ccccc2)c2ccc(Oc3ccccc3)cc2)cc1`: the IC50 on Progesterone receptor amounted to 8 µM; on Glucocorticoid receptor [6] it was 1430 nM. In addition, the inhibition result in data set [1], in data set [2], in data set [3] and in data set [5] was “inactive” throughout. Moreover, the Activity entry at Glucocorticoid receptor [4] is given as “Not Active”.

The IC50 is the concentration that inhibits the measured activity by half.
